Experiments:
[1] = test system: MV4-11 (FLT3 ITD+/+ mutant type); assay: In vitro growth inhibition (GI50), MV4-11; type: cell-based, human; settings: Homo sapiens, MV4-11; Cell lines of leukemia; read-out: GI 50 MV4-11 FLT3 (ITD +/+)
[2] = test system: MOLM-13 (FLT3 ITD+/− mutant type); assay: In vitro growth inhibition (GI50), MOLM-13; type: cell-based, human; settings: Homo sapiens, MOLM-13; Cell lines of leukemia; read-out: GI 50 MOLM-13 FLT3 (ITD+/−)
RS4; 11 (FLT3 wild type) = assay: In vitro growth inhibition (GI50), RS4; 11; type: cell-based, human; settings: Homo sapiens, RS4-11; Cell lines of leukemia; read-out: GI 50 RS4: 11 FLT3 (WT)
[3] = test system: K562 (FLT3 negative expression, positive expression of BCR-ABL fusion protein); assay: In vitro growth inhibition (GI50), K562; type: cell-based; settings: Homo sapiens, Cell lines of leukemia, read-out: GI 50 K562 BCR-ABL
[4] = test system: RAMOS (positive expression of Brutons tyrosine protein kinase); assay: In vitro growth inhibition (GI50), RAMOS; type: cell-based; settings: Homo sapiens, Cell lines of leukemia, read-out: GI 50 Ramos BTK
U937 (FLT3 wild-type) = assay: In vitro growth inhibition (GI50), U937; type: cell-based; settings: Homo sapiens, U-937; Cell lines of leukemia; read-out: GI 50 U937 FLT 3(WT)
[5] = test system: Kasumi-1 (c-Kit N822K mutant type); assay: In vitro growth inhibition (GI50), Kasumi-1; type: cell-based; settings: Homo sapiens, Cell lines of leukemia, read-out: GI 50 Kasumi-1 Kit (N822K)
Procedure, shortened: (§1)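 After 3–5 days of treatment (top concentration 5,000 nM, serially diluted 2- or 10-fold to 0.01 nM, solvent ≤1%), viability was read by CCK8 at OD450. Growth rate was normalised to the time-zero and solvent-control wells, and GI50 was derived from the curve. Cultures in RPMI1640 + 10% FBS.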

[6] = test system: KG-1 (expressing FGFR1OP2-FGFR1 fusion protein); assay: In vitro growth inhibition (GI50), KG-1; type: cell-based; settings: Homo sapiens; Cell lines of leukemia; read-out: GI 50 KG-1 FGFR1OP 2-FGFR1
HL-60 (FLT3 wild type) = assay: In vitro growth inhibition (GI50), HL-60; type: cell-based; settings: Homo sapiens, Cell lines of leukemia, read-out: GI 50 HL60 FLT3 (WT)
Procedure, shortened: as §1

[7] = test system: OCI-AML3 (NPMc+ mutant type); assay: In vitro growth inhibition (GI50), OCI-AML3; type: cell-based; settings: Homo sapiens, OCI-AML-3; Cell lines of leukemia; read-out: GI 50 OCI- AML3 NPMc+

GI50 [1] | GI50 [2] | GI50 (RS4; 11 (FLT3 wild type)) | GI50 [3] | GI50 [4] | GI50 (U937 (FLT3 wild-type)) | GI50 (HL-60 (FLT3 wild type)) | GI50 [7] | SMILES | GI50 [5] | GI50 [6]
10 to 100 nM | 10 to 100 nM | > 1000 nM | > 1000 nM | > 1000 nM | > 1000 nM | > 1000 nM | > 1000 nM | CC(C)(C)c1cc(NC(=O)Nc2ccc(-n3cnc4ccccc43)cc2Cl)no1 [Compound 41, 1-(4-benzimidazol-1-yl-2-chloro-phenyl)-3-(5-tert-butyl-isoxazol-3-yl)-urea] | > 1000 nM | > 1000 nM
100 to 1000 nM | 100 to 1000 nM | > 1000 nM | > 1000 nM | > 1000 nM | > 1000 nM | > 1000 nM | > 1000 nM | CC(C)(C)c1cc(NC(=O)Nc2ccc(-n3ccc4cccnc43)cc2)no1 [Compound 49, 1-(5-tert-butyl-isoxazol-3-yl)-3-(4-pyrrolo[2,3-b]pyridin-1-yl-phenyl)-urea] | > 1000 nM | > 1000 nM
100 to 1000 nM | 100 to 1000 nM | > 1000 nM | > 1000 nM | > 1000 nM | > 1000 nM | > 1000 nM | > 1000 nM | CC(C)(C)c1cc(NC(=O)Nc2ccc(-n3cnc4ccccc43)c(F)c2)no1 [Compound 39, 1-(4-benzimidazol-1-yl-3-fluoro-phenyl)-3-(5-tert-butyl-isoxazol-3-yl)-urea] | > 1000 nM | > 1000 nM
1 to 10 nM | 1 to 10 nM | > 1000 nM | > 1000 nM | 100 to 1000 nM | > 1000 nM | 100 to 1000 nM | > 1000 nM | CC(C)(C)c1cc(NC(=O)Nc2ccc(-n3cnc4cc(OCCN5CCCCCC5)ccc43)cc2)no1 [Compound 18, 1-{4-[5-(2-azepan-1-yl-ethoxyl)-benzimidazol-1-yl]-phenyl}3-(5-tert-butyl-isoxazole-3-yl)-urea] | 100 to 1000 nM | 100 to 1000 nM
0.1 to 1 nM | 0.1 to 1 nM | > 1000 nM | > 1000 nM | > 1000 nM | > 1000 nM | > 1000 nM | > 1000 nM | CC(C)(C)c1cc(NC(=O)Nc2ccc(-n3cnc4cc(OCC#N)ccc43)cc2)[nH]n1 [Compound 83, 1-(5-tert-butyl-2H-pyrazol-3-yl)-3-[4-(5-cyanomethoxy-benzimidazol-1-yl)-phenyl]-urea] | > 1000 nM | > 1000 nM
> 1000 nM | > 1000 nM | > 1000 nM | > 1000 nM | > 1000 nM | > 1000 nM | 100 to 1000 nM | > 1000 nM | CC(C)(C)c1cc(NC(=O)Nc2ccc(-n3cnc4cccc(OCCN5CCOCC5)c43)cc2)no1 [Compound 30, 1-(5-tert-butyl-isoxazol-3-yl)-3-{4-[7-(2-morpholin-4-yl-ethoxyl)-benzimidazol-1-yl]-phenyl}-urea] | > 1000 nM | > 1000 nM
10 to 100 nM | 10 to 100 nM | > 1000 nM | > 1000 nM | > 1000 nM | > 1000 nM | > 1000 nM | > 1000 nM | COc1ncnc2ncn(-c3ccc(NC(=O)Nc4cc(C(C)(C)C)on4)cc3)c12 [Compound 57, 1-(5-tert-butyl-isoxazol-3-yl)-3-[4-(6-methoxyl-purin-7-yl)-phenyl]-urea] | > 1000 nM | > 1000 nM
0.1 to 1 nM | 0.1 to 1 nM | > 1000 nM | > 1000 nM | > 1000 nM | > 1000 nM | > 1000 nM | > 1000 nM | CC(C)(C)c1cc(NC(=O)Nc2ccc(-n3cnc4cc(OC(F)(F)F)ccc43)cc2)no1 [Compound 21, 1-(5-tert-butyl-isoxazol-3-yl)-3-[4-(5-trifluoromethoxy-benzimidazol-1-yl)-phenyl]-urea] | > 1000 nM | > 1000 nM
0.1 to 1 nM | 0.1 to 1 nM | > 1000 nM | > 1000 nM | > 1000 nM | > 1000 nM | > 1000 nM | > 1000 nM | COc1ccc2ncn(-c3ccc(NC(=O)Nc4cc(C(C)(C)C)on4)cc3)c2c1 [Compound 25, 1-(5-tert-butyl-isoxazol-3-yl)-3-[4-(6-methoxyl-benzimidazol-1-yl)-phenyl]-urea] | > 1000 nM | > 1000 nM

Further lines, the compound ahead of its results:

SMILES | GI50 [1] | GI50 [2] | GI50 (RS4; 11 (FLT3 wild type)) | GI50 [3] | GI50 [4] | GI50 (U937 (FLT3 wild-type)) | GI50 (HL-60 (FLT3 wild type)) | GI50 [7] | GI50 [5] | GI50 [6]
CC(C)(C)c1cc(NC(=O)Nc2ccc(-n3cnc4ccccc43)cc2)n(-c2ccccc2)n1 [Compound 104, 1-(4-benzimidazol-1-yl-phenyl)-3-(5-tert-butyl-2-phenyl-2H-pyrazol-3-yl)-urea] | 0.1 to 1 nM | 0.1 to 1 nM | > 1000 nM | > 1000 nM | > 1000 nM | > 1000 nM | > 1000 nM | > 1000 nM | > 1000 nM | > 1000 nM
CC(C)Oc1ccc2c(c1)ncn2-c1ccc(NC(=O)Nc2cc(C(C)(C)C)n[nH]2)cc1 [Compound 74, 1-(5-tert-butyl-2H-pyrazol-3-yl)-3-[4-(5-isopropoxy-benzimidazol-1-yl)-phenyl]-urea] | 0.1 to 1 nM | 0.1 to 1 nM | > 1000 nM | > 1000 nM | > 1000 nM | > 1000 nM | > 1000 nM | > 1000 nM | > 1000 nM | > 1000 nM
COCC(O)COc1ccc2c(c1)ncn2-c1ccc(NC(=O)Nc2cc(C(C)(C)C)n[nH]2)cc1 (centres unmarked) [Compound 80, 1-(5-tert-butyl-2H-pyrazol-3-yl)-3-{4-[5-(2-hydroxy-3-methoxyl-propoxyl)-benzimidazol-1-yl]-phenyl}-urea] | 0.1 to 1 nM | 0.1 to 1 nM | > 1000 nM | > 1000 nM | > 1000 nM | > 1000 nM | > 1000 nM | > 1000 nM | > 1000 nM | > 1000 nM
CNC(=O)c1cc(Oc2ccc3c(c2)ncn3-c2ccc(NC(=O)Nc3cc(C(C)(C)C)n[nH]3)cc2)ccn1 [Compound 96, 4-(1-{4-[3-(5-tert-butyl-2H-pyrazol-3-yl)-carbamido]-phenyl}-1H-benzimidazol-5-yloxy)-pyridin-2-carboxymethylamine] | 1 to 10 nM | 1 to 10 nM | > 1000 nM | > 1000 nM | > 1000 nM | > 1000 nM | > 1000 nM | > 1000 nM | > 1000 nM | > 1000 nM
COCCOc1ccc2ncn(-c3ccc(NC(=O)n4nc(C(C)(C)C)cc4N)cc3)c2c1 [Compound 128, 5-amino-3-tert-butyl-pyrazol-1-carboxylic acid {4-[6-(2-methoxyl-ethoxyl)-benzimidazol-1-yl]-phenyl}-amide] | 10 to 100 nM | 10 to 100 nM | > 1000 nM | > 1000 nM | > 1000 nM | > 1000 nM | > 1000 nM | > 1000 nM | > 1000 nM | > 1000 nM
O=C(Nc1ccc(-n2cnc3ccccc32)cc1)Nc1nccs1 [Compound 60, 1-(4-benzimidazol-1-yl-phenyl)-3-thiazol-2-yl-urea] | > 1000 nM | > 1000 nM | > 1000 nM | > 1000 nM | > 1000 nM | > 1000 nM | > 1000 nM | > 1000 nM | > 1000 nM | 100 to 1000 nM
COc1ccc(-n2nc(C(C)(C)C)cc2NC(=O)Nc2ccc(-n3cnc4ccccc43)cc2)cc1 [Compound 106, 1-(4-benzimidazol-1-yl-phenyl)-3-[5-tert-butyl-2-(4-methoxyl-phenyl)-2H-pyrazol-3-yl]-urea] | 10 to 100 nM | 10 to 100 nM | > 1000 nM | > 1000 nM | > 1000 nM | > 1000 nM | > 1000 nM | > 1000 nM | > 1000 nM | > 1000 nM
CCCCN(CCCC)CCCOc1ccc2c(c1)ncn2-c1ccc(NC(=O)Nc2cc(C(C)(C)C)n[nH]2)cc1 [Compound 82, 1-(5-tert-butyl-2H-pyrazol-3-yl)-3-{4-[5-(3-dibutylaminopropoxy)-benzimidazol-1-yl]-phenyl}-urea] | 0.1 to 1 nM | 0.1 to 1 nM | > 1000 nM | > 1000 nM | 100 to 1000 nM | 100 to 1000 nM | 100 to 1000 nM | > 1000 nM | > 1000 nM | > 1000 nM

Reference: US10647680B2, “Urea compound, preparation method therefor and medical use thereof” (Ancureall Pharmaceutical (Shanghai) Co., Ltd., priority 2016, dated 2020)
